{
  "source": "patent US20210128596A1",
  "about": "“COMPOSITIONS AND METHODS FOR TREATING SEPTIC CARDIOMYOPATHY” (UNIVERSITY OF PENNSYLVANIA, priority 2017, published 2021)",
  "key": {"C57BL/6 mice": {"test_system": "C57BL/6 mice", "experiment": "Echocardiography after cecal ligation and puncture (CLP) or sham surgery", "assay_type": "in vivo, mouse", "design": "LVID; d / EF / FS / LV Mass / LV Mass (Corrected) / LV Vol; d / IVS; d: unit not given here", "description": "Mice were either sham treated or subjected to cecal ligation puncture (CLP). SDG was administered either 2 hours prior to CLP or 6 hours following CLP. Echocardiograms from each group of mice was collected (FIG. 2A) and ejection fraction (EF, left) and fractional shortening (FS, right) was determined.\nAnimal care, cecal ligation and puncture procedure and echocardiography—Animal protocols were approved by the Temple University Institutional Animal Care and Use Committee and were carried out in accordance with the NIH guidelines for the care and use of laboratory animals. Wild type (WT) 8-12 week old C57BL/6 mice were purchased from Jackson labs. Cecal ligation and puncture (CLP) was performed as previously described. Mice were anesthetized with 3.5% inhaled isofluorane. Under aseptic conditions, a 1 to 2 cm midline laparotomy was performed and exposure of the cecum with adjoining intestine. The cecum was tightly ligated at its base below the ileo-cecal valve at a distance of lcm and was punctured twice with a 19-gauge needle. The length of the ligated cecum was defined as the distance from the distal end of cecum to ligation point, which affects the degree of disease severity. Fecal material was extruded from the punctured cecum, and it was returned to the peritoneal cavity. The peritoneum and the skin were closed with three sutures. The mice were resuscitated by injecting subcutaneously lml of pre-warmed 0.9% saline solution to induce the hyperdynamic phase of sepsis and for post-operative analgesia the mice received subcutaneously buprenorphine (0.05 mg·kg body weight). Mice received a single intraperitoneal injection of LGM2605 (100 mg/kg i.p.) that was administrated either 2 h prior to CLP or 6 h post CLP. At 12 h post CLP, two-dimensional echocardiography was performed on anesthetized mice (1.5% inhaled isoflurane) using a VisualSonics Vevo 2100 machine. Echocardiographic images were recorded in a digital format. A single observer blinded to the respective treatments of mice analyzed short-axis m-mode images by LV trace. The number of mice used for each experiment are mentioned in the figure legends."}, "AC16 cells [1]": {"test_system": "AC16 cells", "experiment": "Mitochondrial number (Mitotracker Red) in LPS-treated AC16 cells", "assay_type": "cell-based, human", "description": "AC16 cells were either left untreated or treated for 12 hours with Liposaccharide (LPS) in the absence or presence of SDG, and mitochondria were stained.\nTo assess changes in the mitochondrial number, LPS stimulated AC16 cells and adult cardiomyocytes isolated 12 hours post-CLP were stained with 200 nM Mitotracker Red (M22425, Molecular Probes), and incubated for 30 minutes in the dark. Excess Mitotracker Red was removed with three washed of PBS solution. Mitotracker Red fluorescence was recorded at 581 (excitation) and 644 nm (emission)."}, "[2]": {"test_system": "ventricular tissue of septic mice", "experiment": "DHE staining of cardiac tissue (ROS)", "assay_type": "in vivo, mouse", "conditions": "ventricular tissue 12 hours post-CLP, LGM2605 6 h post-CLP", "description": "DHE staining of cardiac tissue—Live myocardium was isolated from mice 12 hours after surgery and sectioned into 10 sections using a clean razor blade. Tissue was stained with 20 μM dihydroethidium (DHE) for 30 minutes at room temperature and imaged on a Zeiss Axio Observer Z1 fluorescent microscope at 490±10 nm excitation and 632±30 nm emission. Oxidized DHE fluoresces red and intercalates DNA. Individual nuclei were measured within each visual field using Zeiss Zen Blue software, and visual fields were averaged to measure mean fluorescence intensity for each mouse."}, "AC16 cells [3]": {"test_system": "AC16 cells", "experiment": "Mitochondrial membrane potential (TMRM staining) in AC16 cells", "assay_type": "cell-based, human", "description": "To measure mitochondrial membrane potential, AC16 cells were stained with TMRM (62.5 nM, T668, Molecular Probes) for 30 minutes in the dark. TMRM stain was washed in warm PBS three times and imaged at 200× magnification using the Cy3 filter (510 nm excitation wavelength)."}, "[4]": {"conditions": "CLP + LGM2605 (6 hr), 100 mg/kg i.p. 6 h post CLP, echo 12 h post CLP"}, "[5]": {"conditions": "CLP + LGM2605 (−2 hr), 100 mg/kg i.p. 2 h prior to CLP, echo 12 h post CLP"}, "[6]": {"conditions": "Sham + LGM2605 (6 hr), 100 mg/kg i.p., echo 12 h post-surgery"}},
  "note": "Entries after “also recorded” stand apart in the source; their conditions may differ.",
  "data": [
    {"smiles": "COc1cc(C[C@@H](CO[C@@H]2O[C@H](CO)[C@@H](O)[C@H](O)[C@H]2O)[C@H](CO[C@@H]2O[C@H](CO)[C@@H](O)[C@H](O)[C@H]2O)Cc2ccc(O)c(OC)c2)ccc1O", "note": "[LGM2605, secoisolariciresinol diglucoside]", "values": [
      {"measurement": "EF", "setting": "C57BL/6 mice; [4]", "value": 72.7},
      {"measurement": "FS", "setting": "C57BL/6 mice; [4]", "value": 41.3},
      {"measurement": "IVS; d", "setting": "C57BL/6 mice; [4]", "value": 1.4},
      {"measurement": "IVS; s", "setting": "C57BL/6 mice; [4]", "value": 1.8},
      {"measurement": "LV Mass", "setting": "C57BL/6 mice; [4]", "value": 129.2},
      {"measurement": "LV Mass (Corrected)", "setting": "C57BL/6 mice; [4]", "value": 103.3},
      {"measurement": "LV Vol; d", "setting": "C57BL/6 mice; [4]", "value": 30.2},
      {"measurement": "LV Vol; s", "setting": "C57BL/6 mice; [4]", "value": 8.4},
      {"measurement": "LVID; d", "setting": "C57BL/6 mice; [4]", "value": 2.8},
      {"measurement": "LVID; s", "setting": "C57BL/6 mice; [4]", "value": 1.6},
      {"measurement": "LVPW; d", "setting": "C57BL/6 mice; [4]", "value": 1.1},
      {"measurement": "LVPW; s", "setting": "C57BL/6 mice; [4]", "value": 1.6},
      {"measurement": "EF", "setting": "C57BL/6 mice; [5]", "value": 71.7},
      {"measurement": "FS", "setting": "C57BL/6 mice; [5]", "value": 39.3},
      {"measurement": "IVS; d", "setting": "C57BL/6 mice; [5]", "value": 1.3},
      {"measurement": "IVS; s", "setting": "C57BL/6 mice; [5]", "value": 1.6},
      {"measurement": "LV Mass", "setting": "C57BL/6 mice; [5]", "value": 97.2},
      {"measurement": "LV Mass (Corrected)", "setting": "C57BL/6 mice; [5]", "value": 77.8},
      {"measurement": "LV Vol; d", "setting": "C57BL/6 mice; [5]", "value": 18.6},
      {"measurement": "LV Vol; s", "setting": "C57BL/6 mice; [5]", "value": 5.3},
      {"measurement": "LVID; d", "setting": "C57BL/6 mice; [5]", "value": 2.3},
      {"measurement": "LVID; s", "setting": "C57BL/6 mice; [5]", "value": 1.4},
      {"measurement": "LVPW; d", "setting": "C57BL/6 mice; [5]", "value": 1.1},
      {"measurement": "LVPW; s", "setting": "C57BL/6 mice; [5]", "value": 1.5},
      {"measurement": "CLP-mediated cardiac dysfunction", "setting": "C57BL/6 mice; LGM2605 100 mg/kg i.p. 2 h prior to CLP or 6 h post-CLP", "value": "prevented CLP-mediated cardiac dysfunction"},
      {"measurement": "cardiac fractional shortening", "setting": "C57BL/6 mice; SDG 100 mg/kg body weight, i.p., 6 hours post-CLP surgery", "value": "increased cardiac fractional shortening"},
      {"measurement": "ejection fraction (EF) and fractional shortening (FS)", "setting": "C57BL/6 mice; SDG 2 hours prior to CLP or 6 hours following CLP", "value": "restores EF and to pre-CLP levels"},
      {"measurement": "EF", "setting": "C57BL/6 mice; [6]", "value": 66.7},
      {"measurement": "FS", "setting": "C57BL/6 mice; [6]", "value": 36.4},
      {"measurement": "IVS; d", "setting": "C57BL/6 mice; [6]", "value": 1.1},
      {"measurement": "IVS; s", "setting": "C57BL/6 mice; [6]", "value": 1.5},
      {"measurement": "LV Mass", "setting": "C57BL/6 mice; [6]", "value": 146.7},
      {"measurement": "LV Mass (Corrected)", "setting": "C57BL/6 mice; [6]", "value": 117.4},
      {"measurement": "LV Vol; d", "setting": "C57BL/6 mice; [6]", "value": 55.4},
      {"measurement": "LV Vol; s", "setting": "C57BL/6 mice; [6]", "value": 17.9},
      {"measurement": "LVID; d", "setting": "C57BL/6 mice; [6]", "value": 3.6},
      {"measurement": "LVID; s", "setting": "C57BL/6 mice; [6]", "value": 2.3},
      {"measurement": "LVPW; d", "setting": "C57BL/6 mice; [6]", "value": 1.0},
      {"measurement": "LVPW; s", "setting": "C57BL/6 mice; [6]", "value": 1.4},
      {"measurement": "systolic function", "setting": "C57BL/6 mice; septic mice treated with LGM2605", "value": "normal systolic function"},
      {"measurement": "number of mitochondria (Mitotracker)", "setting": "AC16 cells [1]; LPS 12 h with SDG/LGM2605", "value": "prevented by treatment with LGM2605"},
      {"measurement": "number of mitochondria (Mitotracker)", "setting": "AC16 cells [1]; LPS 12 h with SDG/LGM2605, listed as SDG", "value": "more than compensated for this LPS-dependent drop; also recorded: restored mitochondrial abundance in vitro and in vivo"},
      {"measurement": "ROS accumulation (DHE staining intensity)", "setting": "[2]", "value": "alleviated significantly by LGM2605 administration"},
      {"measurement": "ROS accumulation (DHE staining intensity)", "setting": "[2]; listed as SDG", "value": "reduced ROS accumulation"},
      {"measurement": "TMRM staining (mitochondrial membrane potential)", "setting": "AC16 cells [3]; LGM2605 with 50 μM 2,4-DNP, with or without LPS", "value": "lost its beneficial effect in restoring TMRM staining"},
      {"measurement": "TMRM staining (mitochondrial membrane potential)", "setting": "AC16 cells [3]; LPS and LGM2605 12 hours", "value": "significantly restored TMRM staining toward baseline"}
    ]}
  ]
}
